For two compounds, IC50 results are on record in ChEMBL document CHEMBL1158251, “Determination of oenothein B as the active 5-alpha-reductase-inhibiting principle of the folk medicine Epilobium parviflorum” (J Nat Prod, 1996).

This assay can be described thus: Inhibition of 5alpha reductase from human prostatic hyperplasia.

By IC50 is commonly meant the concentration that gives 50% inhibition.

Molecules are shown by their SMILES.

On to `CC(C)(C)NC(=O)[C@H]1CC[C@H]2[C@@H]3CC[C@H]4NC(=O)C=C[C@]4(C)[C@H]3CC[C@]12C` [FINASTERIDE], for which the IC50 was 0.01 µM.

`O=C(O[C@H]1[C@@H]2OC(=O)c3cc(O)c(O)c(O)c3-c3c4cc(c(O)c3O)Oc3c(cc(O)c(O)c3O)C(=O)O[C@H]3C(O)O[C@@H]5COC(=O)c6cc(O)c(O)c(O)c6-c6c(cc(c(O)c6O)Oc6c(cc(O)c(O)c6O)C(=O)O[C@H]1C(O)O[C@@H]2COC4=O)C(=O)O[C@H]5[C@@H]3OC(=O)c1cc(O)c(O)c(O)c1)c1cc(O)c(O)c(O)c1` (some centres not stated) [OENOTHEIN B] had an IC50 of 22 µM.
